Calls of active or inactive are those of the source. No cut-off for these calls is given here.
Columns and labels:
SH-SY5Y [1] = test: Anti-ferroptosis activity against RSL3-induced ferroptosis in human SH-SY5Y cells assessed as reversal of ferroptosis by measuring cell viability measured after 48 hrs by MTT assay; type: functional, cell-based
SH-SY5Y [2] = test: Prevention of RSL3-induced ferroptosis in human SH-SY5Y cells assessed as cell viability at 5 uM measured after 48 hrs by MTT assay; type: functional, cell-based
[3] = Metabolic stability in rat liver homogenate assessed as half life; type: ADME, tissue-based
[4] = Metal chelating activity assessed as compound-Fe2+ complex formation by UV-Vis absorption spectra analysis
[5] = Plasma stability in rat plasma assessed as recovery measured after 12 hrs; type: ADME, cell-free; conditions: read-out: Drug recovery
[6] = Plasma stability in rat plasma assessed as half life; type: ADME, cell-free
HT-1080 [7] = test: Anti-ferroptosis activity against RSL3-induced ferroptosis in human HT-1080 cells assessed as reversal of ferroptosis by measuring cell viability measured after 48 hrs by MTT assay; type: functional, cell-based
[8] = Metabolic stability in rat liver homogenate assessed as recovery measured after 12 hrs; type: ADME, tissue-based; conditions: read-out: Drug recovery
[9] = Free radical trapping antioxidant activity in di-tert-undecyl hyponitrite (DTUN) trigged STY-BODIPY-embedded egg phosphatidylcholine liposomes assessed as inhibition of phospholipid peroxidation by measuring inhibition rate constant of STY-BODIPY at 1 uM by fluorescence-enabled inhibited autoxidation method (FENIX); type: functional
L02 = test: Cytotoxicity against human LO2 cells at 30 uM measured after 48 hrs incubation by MTT assay; type: toxicity, cell-based; conditions: l02, 48 h
SH-SY5Y [10] = test: Anti-ferroptotic activity against RSL3 induced human SH-SY5Y cells inhibition of RSL3 induced in LPO accumulation at 1.5 uM measured after 16 hrs by BODIPY581/591 based flow cytometric analysis; type: functional, cell-based
[11] = Plasma stability in human plasma assessed as half life; type: ADME, cell-free
HT-1080 [12] = test: Prevention of RSL3-induced ferroptosis morphological changes in human HT-1080 cells assessed as shrinkage, swelling, and membrane rupture measured up to 48 hrs; type: functional, cell-based
[13] = Cytotoxicity against human HUVEC at 30 uM measured after 48 hrs incubation by MTT assay; type: toxicity, cell-based; conditions: huve
SH-SY5Y [14] = test: Prevention of TSZ-induced necroptosis in human SH-SY5Y cells assessed as cell viability at 5 uM measured after 48 hrs by MTT assay; type: functional, cell-based
[15] = Plasma stability in human plasma assessed as recovery measured after 12 hrs; type: ADME, cell-free; conditions: read-out: Drug recovery
SH-SY5Y [16] = test: Anti-ferroptotic activity against RSL3 induced human SH-SY5Y cells inhibition of RSL3 induced in MDA level at 1.5 uM measured after 16 hrs by lipid peroxidation MDA assay; type: functional, cell-based
SH-SY5Y [17] = test: Anti-ferroptotic activity against RSL3 induced human SH-SY5Y cells inhibition of RSL3 induced in LPO accumulation at 1.5 uM measured after 16 hrs by DCFH-DA based confocal laser scanning microscopic (CLSM) imaging analysis; type: functional, cell-based
[18] = Metal chelating activity assessed as compound-Fe3+ complex formation by UV-Vis absorption spectra analysis
SH-SY5Y [19] = test: Prevention of STS-induced apoptosis in human SH-SY5Y cells assessed as cell viability at 5 uM measured after 48 hrs by MTT assay; type: functional, cell-based
OS-RC-2 = test: Anti-ferroptosis activity against RSL3-induced ferroptosis in human OS-RC-2 cells assessed as reversal of ferroptosis by measuring cell viability measured after 48 hrs by MTT assay; type: functional, cell-based
[20] = Antioxidant activity assessed as DPPH radical scavenging activity measured after 30 mins in dark by (DPPH) bleaching assay; type: functional
[21] = Toxicity in Balb/c mouse assessed as histopathological changes in liver at 20 mg/kg, iv (tail vein) measured for 24 hrs by H and E staining based analysis; type: organism-based; conditions: in vivo
[22] = Toxicity in Balb/c mouse assessed as histopathological changes in kidney at 20 mg/kg, iv (tail vein) measured for 24 hrs by H and E staining based analysis; type: organism-based; conditions: in vivo
Mus musculus [23] = test: Protection against middle cerebral artery occlusion (MCAO)-induced Balb/c mouse assessed as reduction in infarct volume in brain at 20 mg/kg, iv (tail vein) measured for 24 hrs by TTC staining (reference value: 50.08%); type: functional; parameters: scale not given: the % may be the effect or the level left
[24] = Toxicity in Balb/c mouse assessed as histopathological changes in heart at 20 mg/kg, iv (tail vein) measured for 24 hrs by H and E staining based analysis; type: organism-based; conditions: in vivo
Mus musculus [25] = test: Protection against middle cerebral artery occlusion (MCAO)-induced Balb/c mouse assessed as reduction in MDA level in lesioned hemisphere at 20 mg/kg, iv (tail vein) measured for 24 hrs by lipid peroxidation MDA assay; type: functional, organism-based
[26] = Toxicity in Balb/c mouse assessed as histopathological changes in spleen at 20 mg/kg, iv (tail vein) measured for 24 hrs by H and E staining based analysis; type: organism-based; conditions: in vivo
Mus musculus [27] = test: Protection against middle cerebral artery occlusion (MCAO)-induced Balb/c mouse assessed as reduction in PTGS2 mRNA level in lesioned hemisphere at 20 mg/kg, iv (tail vein) measured for 24 hrs by qRT-PCR analysis; type: functional, organism-based
[28] = Toxicity in Balb/c mouse assessed as histopathological changes in lung at 20 mg/kg, iv (tail vein) measured for 24 hrs by H and E staining based analysis; type: organism-based; conditions: in vivo

SMILES: c1coc(CNc2c(-c3cscn3)nc3ccccn23)c1
- IC50 (SH-SY5Y [1]): 2.64 µM

SMILES: Cc1ccc2nc(-c3ccc(N4CCOCC4)cc3)c(NC3CCCCC3)n2c1
- IC50 (SH-SY5Y [1]): > 10 µM

SMILES: CCOC(=O)CNc1c(-c2ccc(OC)cc2)nc2ccccn12
- IC50 (SH-SY5Y [1]): 3.94 µM

SMILES: COc1ccc(Nc2c(-c3ccoc3)nc3ccccn23)cc1Cl
- Activity (SH-SY5Y [2]): Active
- half-life [3]: > 12 h
- Activity [4]: inactive
- remaining at 12 h [5]: 100%
- half-life [6]: > 12 h
- Activity (HT-1080 [7]): Active
- remaining at 12 h [8]: 95.8%
- Ki [9]: 1.6 10^4/M/s
- Activity (L02): Non-toxic
- Activity (SH-SY5Y [10]): Active
- half-life [11]: > 12 h
- Activity (HT-1080 [12]): Active
- Activity [13]: Non-toxic
- Activity (SH-SY5Y [14]): inactive
- remaining at 12 h [15]: 100%
- Activity (SH-SY5Y [16]): Active
- IC50 (SH-SY5Y [1]): 0.099 µM
- Activity (SH-SY5Y [17]): Active
- Activity [18]: inactive
- Activity (SH-SY5Y [19]): inactive
- Activity (OS-RC-2): Active
- Activity [20]: Dose-dependent-effect

SMILES: CC(C)(C)Nc1c(-c2ccoc2)nc2ccccn12
- IC50 (SH-SY5Y [1]): > 10 µM

SMILES: FC(F)(F)c1ccccc1-c1nc2ccc3ccccc3n2c1NC1CCCCC1
- IC50 (SH-SY5Y [1]): 0.104 µM

SMILES: COc1ccc(Nc2c(-c3cc(Cl)cc(Cl)c3)nc3cc(COCc4cccc(Cl)c4)ccn23)cc1Cl
- IC50 (SH-SY5Y [1]): 0.802 µM

SMILES: Cc1cn2cccc(-c3ccccc3O)c2n1
- IC50 (SH-SY5Y [1]): > 30 µM

SMILES: COc1ccc(Nc2c(C3CCCCC3)nc3ccc(F)cn23)cc1Cl
- IC50 (SH-SY5Y [1]): 0.08 µM

SMILES: Clc1cccc(-c2nc3ccccn3c2NC23C[C@H]4C[C@@H](C2)C[C@@H](C3)C4)c1
- IC50 (SH-SY5Y [1]): > 30 µM

SMILES: CCOC(=O)c1ccc(NC2CCCCC2)c(N)c1
- Activity (SH-SY5Y [2]): Active
- half-life [3]: 0.67 h
- remaining at 12 h [5]: 0%
- half-life [6]: 2.1 h
- remaining at 12 h [8]: 7.1%
- half-life [11]: > 12 h
- remaining at 12 h [15]: 94.1%
- IC50 (SH-SY5Y [1]): 0.02 µM

SMILES: COc1ccc(-c2nc3ccccn3c2NC(C)(C)C)cc1
- IC50 (SH-SY5Y [1]): > 30 µM

SMILES: COc1ccc(Nc2c(-c3ccsc3)nc3ccccn23)cc1Cl
- IC50 (SH-SY5Y [1]): 0.476 µM

SMILES: COc1ccc(-c2nc3ccccn3c2NC23C[C@H]4C[C@@H](C2)C[C@@H](C3)C4)cc1
- IC50 (SH-SY5Y [1]): 1.87 µM

SMILES: Clc1cc(Cl)cc(CNc2c(-c3ccoc3)nc3ccccn23)c1
- IC50 (SH-SY5Y [1]): 1.56 µM

SMILES: Oc1ccc(-c2cn3ccccc3n2)c(O)c1
- IC50 (SH-SY5Y [1]): 2.38 µM

SMILES: Clc1cc(Cl)cc(CNc2c(-c3cc(Cl)cc(Cl)c3)nc3ccccn23)c1
- IC50 (SH-SY5Y [1]): 1.93 µM

SMILES: Oc1ccccc1-c1nc2ccccn2c1Cc1ccccc1
- IC50 (SH-SY5Y [1]): 5.21 µM

SMILES: c1ccn2c(NC34C[C@H]5C[C@@H](C3)C[C@@H](C4)C5)c(-c3cscn3)nc2c1
- IC50 (SH-SY5Y [1]): > 30 µM

SMILES: Nc1ccccc1-c1cn2ccccc2n1
- IC50 (SH-SY5Y [1]): > 10 µM

SMILES: COc1ccc(Nc2c(-c3ccccc3Cl)nc3ccc4ccccc4n23)cc1Cl
- IC50 (SH-SY5Y [1]): 0.065 µM

SMILES: COc1ccc(Nc2c(C3CCCCC3)nc3ccccn23)cc1Cl
- Activity (SH-SY5Y [2]): Active
- half-life [3]: > 12 h
- Activity [4]: inactive
- Activity [21]: Non-toxic
- remaining at 12 h [5]: 100%
- half-life [6]: > 12 h
- Activity [22]: Non-toxic
- Activity (HT-1080 [7]): Active
- remaining at 12 h [8]: 91.1%
- Ki [9]: 2 10^4/M/s
- Activity (L02): Non-toxic
- Activity (Mus musculus [23]): 25.28%
- Activity (SH-SY5Y [10]): Active
- half-life [11]: > 12 h
- Activity (HT-1080 [12]): Active
- Activity [24]: Non-toxic
- Activity [13]: Non-toxic
- Activity (SH-SY5Y [14]): inactive
- remaining at 12 h [15]: 100%
- Activity (SH-SY5Y [16]): Active
- IC50 (SH-SY5Y [1]): 0.097 µM
- Activity (Mus musculus [25]): Active
- Activity [26]: Non-toxic
- Activity (Mus musculus [27]): Active
- Activity (SH-SY5Y [17]): Active
- Activity [18]: inactive
- Activity (SH-SY5Y [19]): inactive
- Activity [28]: Non-toxic
- Activity (OS-RC-2): Active
- Activity [20]: Dose-dependent-effect

SMILES: c1ccn2c(NC34C[C@H]5C[C@@H](C3)C[C@@H](C4)C5)c(C3CCCCC3)nc2c1
- IC50 (SH-SY5Y [1]): > 10 µM

SMILES: FC(F)(F)c1ccccc1-c1nc2ccccn2c1NCc1ccco1
- IC50 (SH-SY5Y [1]): 0.412 µM

SMILES: Clc1cc(Cl)cc(CNc2c(-c3cc(Cl)cc(Cl)c3)nc3ccc4ccccc4n23)c1
- IC50 (SH-SY5Y [1]): 0.766 µM

SMILES: COc1ccc(-c2nc3ccccn3c2NC2CCCCC2)cc1
- IC50 (SH-SY5Y [1]): > 10 µM

SMILES: Clc1cc(Cl)cc(-c2nc3ccccn3c2NC2CCCCC2)c1
- IC50 (SH-SY5Y [1]): 0.625 µM

SMILES: COc1ccc(Nc2c(-c3csc4ccccc34)nc3ccccn23)cc1Cl
- IC50 (SH-SY5Y [1]): 0.195 µM

SMILES: Oc1ccccc1-c1cccn2c(Cc3ccccc3)c(-c3ccccc3)nc12
- IC50 (SH-SY5Y [1]): > 30 µM

SMILES: Clc1cccc(CNc2c(-c3cccc(Cl)c3)nc3ccc4ccccc4n23)c1
- IC50 (SH-SY5Y [1]): 0.287 µM

SMILES: COc1ccc(Nc2c(-c3cc(Cl)cc(Cl)c3)nc3ccc(N4CCN(C)CC4)cn23)cc1Cl
- IC50 (SH-SY5Y [1]): 0.084 µM

SMILES: COc1ccc(Nc2c(-c3c(Cl)cc(Cl)cc3Cl)nc3ccc4ccccc4n23)cc1Cl
- half-life [3]: < 0.08 h
- remaining at 12 h [5]: 42.3%
- half-life [6]: < 0.08 h
- remaining at 12 h [8]: 32.2%
- half-life [11]: < 0.08 h
- remaining at 12 h [15]: 47.9%
- IC50 (SH-SY5Y [1]): 0.022 µM

SMILES: Clc1cccc(CNc2c(-c3cccc(Cl)c3)nc3ccccn23)c1
- IC50 (SH-SY5Y [1]): 0.181 µM

SMILES: Cc1cn2cccc(-c3ccccc3N)c2n1
- IC50 (SH-SY5Y [1]): > 100 µM

SMILES: c1ccc2c(c1)ccc1nc(-c3ccsc3)c(NC3CCCCC3)n12
- IC50 (SH-SY5Y [1]): 0.426 µM

SMILES: CC(=O)N(O)CCCCCNC(=O)CCC(=O)N(O)CCCCCNC(=O)CCC(=O)N(O)CCCCCN
- Activity [4]: Active
- Activity [18]: Active

SMILES: Clc1cc(Cl)cc(-c2nc3ccc4ccccc4n3c2NC2CCCCC2)c1
- IC50 (SH-SY5Y [1]): 0.92 µM

SMILES: Cc1ccc2nc(-c3cccc(Cl)c3)c(NC(C)(C)C)n2c1
- IC50 (SH-SY5Y [1]): > 10 µM

SMILES: CCOC(=O)CNc1c(-c2ccccc2)nc2ccccn12
- IC50 (SH-SY5Y [1]): 2.93 µM

SMILES: Clc1cc(Cl)cc(CNc2c(-c3cscn3)nc3ccccn23)c1
- IC50 (SH-SY5Y [1]): 2.03 µM

SMILES: Oc1ccccc1-c1cn2ccccc2n1
- IC50 (SH-SY5Y [1]): 9.88 µM

SMILES: Cc1ccccc1-c1cn2ccccc2n1
- IC50 (SH-SY5Y [1]): > 100 µM
